This is an account of results in publication PMC11018852, “Scutellarin activates IDH1 to exert antitumor effects in hepatocellular carcinoma progression” (Cell Death & Disease, 2024).

For this assay, the target named is T1, IDH1 (Homo sapiens, UniProt O75874).
T1 construct: residues 1–414
Put plainly: biolayer interferometry on recombinant IDH1 (repeat Kd […]); supported by DSF, CETSA, LC-MS/MS adduct at Cys297, enzyme activation EC50 […]. Type of assay: binding.

T1 sequence (O75874 whole entry, the tested form may be a part): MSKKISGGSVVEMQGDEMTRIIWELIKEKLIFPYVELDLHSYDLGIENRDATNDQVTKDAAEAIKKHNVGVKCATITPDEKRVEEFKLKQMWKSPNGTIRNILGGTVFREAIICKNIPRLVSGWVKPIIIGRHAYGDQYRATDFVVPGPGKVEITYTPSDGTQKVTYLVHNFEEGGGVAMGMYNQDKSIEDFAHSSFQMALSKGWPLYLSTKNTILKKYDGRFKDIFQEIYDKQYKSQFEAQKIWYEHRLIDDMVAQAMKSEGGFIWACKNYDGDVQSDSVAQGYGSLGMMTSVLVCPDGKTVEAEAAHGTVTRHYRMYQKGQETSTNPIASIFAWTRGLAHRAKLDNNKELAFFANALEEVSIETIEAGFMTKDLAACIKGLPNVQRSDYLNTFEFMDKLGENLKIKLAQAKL

For `O=C(O)[C@H]1O[C@@H](Oc2cc3oc(-c4ccc(O)cc4)cc(=O)c3c(O)c2O)[C@H](O)[C@@H](O)[C@@H]1O` [Scu, scutellarin], the Kd (in general, the concentration at which binding is half-saturated) is 11.5 µM.
